{"source": "ChEMBL document CHEMBL4229534", "about": "“Amelioration of mechanism-based inactivation of CYP3A4 by a H-PGDS inhibitor” (Bioorg Med Chem Lett, 2018)", "key": {"[1]": {"molecular_target": "T1, CYP3A4 (Homo sapiens, UniProt P08684)", "T1 sequence (P08684 whole entry)": "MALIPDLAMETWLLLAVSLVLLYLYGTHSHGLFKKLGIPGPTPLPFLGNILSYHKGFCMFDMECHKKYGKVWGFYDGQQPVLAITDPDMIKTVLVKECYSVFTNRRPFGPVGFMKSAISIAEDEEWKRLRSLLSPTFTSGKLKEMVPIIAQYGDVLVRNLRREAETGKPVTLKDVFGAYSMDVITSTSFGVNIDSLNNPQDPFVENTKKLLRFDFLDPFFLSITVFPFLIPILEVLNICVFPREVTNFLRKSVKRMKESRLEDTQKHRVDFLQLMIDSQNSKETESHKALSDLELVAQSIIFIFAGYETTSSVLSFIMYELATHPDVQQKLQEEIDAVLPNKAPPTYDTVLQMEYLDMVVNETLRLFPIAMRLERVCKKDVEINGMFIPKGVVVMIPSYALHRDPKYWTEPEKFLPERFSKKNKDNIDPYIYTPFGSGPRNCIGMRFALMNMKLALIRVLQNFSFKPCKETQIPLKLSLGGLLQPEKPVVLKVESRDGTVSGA", "experiment": "Inhibition of CYP3A4 in human liver microsomes assessed as residual activity using testosterone as substrate relative to control", "assay_type": "ADME", "set-up": "concentration or dose not given beside the values", "conditions": "probe testosterone; call rule not given here"}, "[2]": {"molecular_target": "T2, Cytochrome P450 3A4 (Homo sapiens, UniProt P08684)", "T2 sequence (P08684 whole entry)": "as above", "experiment": "Mechanism based inactivation of CYP3A4 in human liver microsomes assessed as apparent partition ratio by measuring ratio of number of inactivator molecules that get metabolized to number of enzyme molecules inactivated using testosterone as substrate", "assay_type": "ADME"}, "[3]": {"molecular_target": "T1, CYP3A4", "experiment": "Inhibition of CYP3A4 in human liver microsomes assessed as residual activity using midazolam as substrate relative to control", "assay_type": "ADME", "set-up": "concentration or dose not given beside the values", "conditions": "probe midazolam"}, "[4]": {"molecular_target": "T2, Cytochrome P450 3A4", "experiment": "Mechanism based inactivation of CYP3A4 in human liver microsomes assessed as apparent partition ratio by measuring ratio of number of inactivator molecules that get metabolized to number of enzyme molecules inactivated using midazolam as substrate", "assay_type": "ADME"}, "[5]": {"molecular_target": "T2, Cytochrome P450 3A4", "experiment": "Mechanism based inactivation of recombinant human CYP3A4 assessed as apparent partition ratio by measuring ratio of number of inactivator molecules that get metabolized to number of enzyme molecules inactivated using testosterone as substrate", "assay_type": "ADME"}, "[6]": {"molecular_target": "Hematopoietic prostaglandin D synthase (Homo sapiens, UniProt O60760)", "sequence (O60760 whole entry)": "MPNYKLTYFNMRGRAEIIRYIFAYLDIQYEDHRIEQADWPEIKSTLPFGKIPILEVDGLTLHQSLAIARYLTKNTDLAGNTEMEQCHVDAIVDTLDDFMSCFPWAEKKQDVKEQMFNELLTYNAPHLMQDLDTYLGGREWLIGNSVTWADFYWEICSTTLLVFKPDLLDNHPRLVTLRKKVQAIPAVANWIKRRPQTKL", "experiment": "Inhibition of HPGDS (unknown origin)"}, "[7]": {"molecular_target": "T1, CYP3A4", "experiment": "(§1) Inhibition of recombinant human CYP3A4 assessed as residual activity using testosterone as substrate relative to control", "assay_type": "ADME", "conditions": "recombinant human CYP3A4, probe testosterone"}, "[8]": {"molecular_target": "T1, CYP3A4", "experiment": "(§2) Inhibition of recombinant human CYP3A4 assessed as residual activity using midazolam as substrate relative to control", "assay_type": "ADME", "conditions": "recombinant human CYP3A4, probe midazolam"}, "[9]": {"molecular_target": "T2, Cytochrome P450 3A4", "experiment": "Mechanism based inactivation of recombinant human CYP3A4 assessed as apparent partition ratio by measuring ratio of number of inactivator molecules that get metabolized to number of enzyme molecules inactivated using midazolam as substrate", "assay_type": "ADME"}, "[10]": {"molecular_target": "T2, Cytochrome P450 3A4", "experiment": "as §1", "assay_type": "ADME", "conditions": "recombinant enzyme"}, "[11]": {"molecular_target": "T2, Cytochrome P450 3A4", "experiment": "as §2", "assay_type": "ADME", "conditions": "recombinant enzyme"}}}
{"smiles": "Cc1nc(-c2ccccn2)ncc1C(=O)Nn1cc(C)c2cc(F)ccc21", "values": [{"measurement": "activity", "setting": "[1]", "result": 20, "unit": "%"}, {"measurement": "Ratio", "setting": "[2]", "result": "160 to 167"}, {"measurement": "activity", "setting": "[3]", "result": 30, "unit": "%"}, {"measurement": "Ratio", "setting": "[4]", "result": "170 to 173"}]}
{"smiles": "Cc1nc(-c2ccccn2)ncc1C(=O)Nn1ccc2c(C(F)(F)F)cccc21", "values": [{"measurement": "activity", "setting": "[1]", "result": 91, "unit": "%"}, {"measurement": "Ratio", "setting": "[5]", "result": 842}, {"measurement": "IC50", "setting": "[6]", "result": 10, "unit": "nM"}, {"measurement": "activity", "setting": "[3]", "result": 100, "unit": "%"}, {"measurement": "activity", "setting": "[7]", "result": 59, "unit": "%"}, {"measurement": "activity", "setting": "[8]", "result": 57, "unit": "%"}, {"measurement": "Ratio", "setting": "[9]", "result": 1119}]}
{"smiles": "Cc1nc(-c2ccccn2)ncc1C(=O)Nn1cc(C)c2nc(F)ccc21", "values": [{"measurement": "activity", "setting": "[1]", "result": 91, "unit": "%"}, {"measurement": "IC50", "setting": "[6]", "result": 6, "unit": "nM"}, {"measurement": "activity", "setting": "[3]", "result": 79, "unit": "%"}]}
{"smiles": "CNS(=O)(=O)c1cccc(CNC(=O)c2cnc(-c3cccc(F)c3)nc2C)c1", "values": [{"measurement": "IC50", "setting": "[6]", "result": 9.5, "unit": "nM"}]}
{"smiles": "CC(C)(CO)NS(=O)(=O)c1cccc(CNC(=O)c2cnc(-c3cccc(F)c3)nc2)c1", "values": [{"measurement": "IC50", "setting": "[6]", "result": 23, "unit": "nM"}]}
{"smiles": "COc1ccc2c(n1)c(C)cn2NC(=O)c1cnc(-c2ccccn2)nc1C", "values": [{"measurement": "activity", "setting": "[1]", "result": "> 70", "unit": "%"}, {"measurement": "Ratio", "setting": "[5]", "result": 460}, {"measurement": "IC50", "setting": "[6]", "result": 3, "unit": "nM"}, {"measurement": "activity", "setting": "[3]", "result": 57, "unit": "%"}, {"measurement": "activity", "setting": "[7]", "result": 22, "unit": "%"}, {"measurement": "Ratio", "setting": "[4]", "result": 338}, {"measurement": "activity", "setting": "[8]", "result": 19, "unit": "%"}, {"measurement": "Ratio", "setting": "[9]", "result": 326}]}
{"smiles": "Cc1nc(-c2ncccn2)ncc1C(=O)Nn1ccc2c(C(F)(F)F)cccc21", "values": [{"measurement": "activity", "setting": "[1]", "result": 90, "unit": "%"}, {"measurement": "IC50", "setting": "[6]", "result": 8, "unit": "nM"}, {"measurement": "activity", "setting": "[3]", "result": 95, "unit": "%"}, {"measurement": "activity", "setting": "[10]", "result": "Not Active"}, {"measurement": "activity", "setting": "[11]", "result": "Not Active"}]}
